Source: patent US20100104621A1, “TREATING ADHD AND OTHER DISEASES INVOLVING INFLAMMATION” (CONNECTED HEALTH SYSTEMS, LLC, priority 2007, published 2010)

Experiments:
ovarian cancer = settings: in 10 days, animal studies; cited from earlier work
VEGF = settings: animal studies; cited from earlier work
[1] = test system: person with stage 4 ovarian cancer; experiment: Example 6: person with stage 4 ovarian cancer; type: in vivo, human; settings: with Adderall XR
Source text: A person presents with stage 4 ovarian cancer, skin picking, irritable bowel syndrome, PMS, allergies, and a tonsillectomy. They are BRCA1 positive and lost their parent due to breast cancer. Other family members have succumbed to breast cancer, pancreatic cancer, and colon cancer. They are screened for ADHD and is started on Adderall XR and titrated up to 15 mgs three times a day. They are tapered off Prozac for depression. Six weeks later they state that their depression is gone and their energy level is back to normal and their strength is retuning. Their nausea is also gone. […] When they ran out of vitamin B6, their skin picking returns in one week, but stops the day they resume taking vitamin B6.
Catecholamines may interact with genes involved in cancer in certain tissues. BRCA1 knocks p21, p53, and RAD51 out. Genes can be turned on and off based on signaling. Their amino acid profile fits with a defect in pyridoxine-5′-phosphate oxidase which is located on […]. This is beside BRCA1 on chromosome 17. It is possible the patient has a defect in SLC6A4 not ADHD 2 on 17p11.2. 17p11.2 is the site of serine hydroxymethyltransferase. Additionally, it is possible that second messengers that are inactivated by BRCA-1 are responsible for lowering their catecholamines. […]

[2] = test system: patient with OCD and ADHD, and their child; experiment: Example 4: family with history of ADHD, OCD and cancer; type: in vivo, human
Source text: The 5HT2A receptor has been associated with OCD, Seasonal Affective Disorder, Alcoholism, and a predisposition toward Schizophrenia. The gene for this receptor is found on chromosome 13. A patient presents with OCD and ADHD. Two of their children also are diagnosed with OCD and ADHD. […] They test positive for BRCA2 which is also found on chromosome 13 in the same region as the gene for the 5HT2A receptor.
Lowered catecholamines lead to slightly elevated prolactin and can alter GnRH. Elevated GnRH leads to spikes in estrogen and progesterone and may eventually lead to premature ovarian failure along with alterations in inflammation and co-factors. Elevated interleukins lead to increased free radical production and damage to DNA. Lowered dopamine would allow for angiogenesis. Elevated interleukins could induce CREB and increase the expression of ICAM and VCAM. BRCA2 lowers p53, p21 (tumor suppressor genes) as well as RAD51, which repairs damage to DNA. Catecholamines may interact with genes involved in cancer via common second messenger systems. Laboratory tests reveal that the patient has a high vitamin B6 level of 100, and an abnormal amino acid profile.
Treatment of the patient includes administering an extended release CNS stimulant at an appropriate dosage to achieve the desired therapeutic effect, substantially around the clock. […]

[3] = test system: obese person diagnosed with ADHD; experiment: Example 5: treatment of obese person with ADHD; type: in vivo, human; settings: with Adderall XR; amino acid supplements for 4 months then stopped
Source text: An obese person presents complaining of depression. They are on Lipitor for high cholesterol and has a heart rate of 116 and a blood pressure of 166/112. They also have “heart burn”. They are diagnosed with ADHD and titrated up to 15 mgs of Adderall XR three times a day. Their heart rate decreases to 100 at the first visit four weeks later and after 8 weeks it is 88. Based on lab reports, their vitamin B6 level is elevated at 56 and they are deficient in arginine, ornithine, histidine, threonine, and taurine along with other amino acids. They also have an elevated IL-6 level. Their vitamin D3 level is also very low. They are started on P-5-P and is supplemented with the aforementioned amino acids to help replenish their body. Their taurine level is 18 and normal is at 54. They are a candidate for developing a cardiac arrhythmia.
[…] Their blood pressure and heart rate continue to decline and they begin to lose weight despite having a normal appetite. […] Their depression is gone and they are dreaming about becoming a lawyer. They remain on Adderall XR, however their dose is decreased to 10 mgs three times a day. They remain on P-5-P. The patient's amino acid profile is normal and their CRP is normal. CRP is an indirect measure of IL-6 and is impacted by low levels of P-5-P.

[4] = test system: pyramidal neurons in the medial prefrontal cortex; settings: after 12 days of continuous administration; cited from earlier work

With `NCCc1ccc(O)c(O)c1` [Dopamine] as the compound, how does the “shrinkage of ovarian cancer” value (ovarian cancer) read?
Its value is 80%.

And the “effect on VEGF” value (VEGF)?
The value was “inhibit”.

For `Cc1ncc(COP(=O)(O)O)c(C=O)c1O` [P-5-P, pyridoxal 5′-phosphate], which skin picking [1] is on record?
The skin picking was “stops that same day”.

What about the amino acid profile ([2]; child, with around the clock stimulant, fish oil and antioxidants) of the same compound?
Its amino acid profile is “returns to normal”.

And the amino acid profile ([2]; parent, 100 mgs, with extended release CNS stimulant)?
The amino acid profile was “corrects”.

And the CRP [3]?
Its CRP is “normal”.

What about the amino acid profile [3] of the same compound?
The amino acid profile was “normal”.

Which “dendritic length and branches of pyramidal neurons in the medial prefrontal cortex” value [4] does the source give for `CC(N)Cc1ccccc1` (centres unmarked) [amphetamine] here?
Its value is “increase in dendritic length and branches”.
